We go through 34 compounds from US20220356174A1, “PYRIDIN-2-ONE COMPOUNDS USEFUL AS SMARCA2 ANTAGONISTS” (Epizyme, Inc., priority 2018, published 2022).

Test [1] deals with T1, FL-SMARCA2 (full-length human SMARCA2 isoform 1) (Homo sapiens, UniProt P51531).
T1 construct: FLAG tag (YKDDDDK) (C); made in house; host or cells: Sf21 insect cells (baculovirus, pFastBacI)
Nature of the test: SMARCA2 ATPase activity assay (ADP-Glo, chicken mononucleosome substrate). Format: biochemical. To be noted: ATPase assay, enzyme 5 nM, ATP 250 uM, chicken mononucleosome 10 nM, 30 min preincubation. Background: ADP-Glo turns the ADP formed in a reaction into a luminescent signal.

The target of test [2] is FL-SMARCA4 (Homo sapiens, UniProt P51532). Nature of the test: SMARCA4 ATPase activity assay (ADP-Glo, chicken mononucleosome substrate).
FL-SMARCA4, sequence (P51532 whole entry): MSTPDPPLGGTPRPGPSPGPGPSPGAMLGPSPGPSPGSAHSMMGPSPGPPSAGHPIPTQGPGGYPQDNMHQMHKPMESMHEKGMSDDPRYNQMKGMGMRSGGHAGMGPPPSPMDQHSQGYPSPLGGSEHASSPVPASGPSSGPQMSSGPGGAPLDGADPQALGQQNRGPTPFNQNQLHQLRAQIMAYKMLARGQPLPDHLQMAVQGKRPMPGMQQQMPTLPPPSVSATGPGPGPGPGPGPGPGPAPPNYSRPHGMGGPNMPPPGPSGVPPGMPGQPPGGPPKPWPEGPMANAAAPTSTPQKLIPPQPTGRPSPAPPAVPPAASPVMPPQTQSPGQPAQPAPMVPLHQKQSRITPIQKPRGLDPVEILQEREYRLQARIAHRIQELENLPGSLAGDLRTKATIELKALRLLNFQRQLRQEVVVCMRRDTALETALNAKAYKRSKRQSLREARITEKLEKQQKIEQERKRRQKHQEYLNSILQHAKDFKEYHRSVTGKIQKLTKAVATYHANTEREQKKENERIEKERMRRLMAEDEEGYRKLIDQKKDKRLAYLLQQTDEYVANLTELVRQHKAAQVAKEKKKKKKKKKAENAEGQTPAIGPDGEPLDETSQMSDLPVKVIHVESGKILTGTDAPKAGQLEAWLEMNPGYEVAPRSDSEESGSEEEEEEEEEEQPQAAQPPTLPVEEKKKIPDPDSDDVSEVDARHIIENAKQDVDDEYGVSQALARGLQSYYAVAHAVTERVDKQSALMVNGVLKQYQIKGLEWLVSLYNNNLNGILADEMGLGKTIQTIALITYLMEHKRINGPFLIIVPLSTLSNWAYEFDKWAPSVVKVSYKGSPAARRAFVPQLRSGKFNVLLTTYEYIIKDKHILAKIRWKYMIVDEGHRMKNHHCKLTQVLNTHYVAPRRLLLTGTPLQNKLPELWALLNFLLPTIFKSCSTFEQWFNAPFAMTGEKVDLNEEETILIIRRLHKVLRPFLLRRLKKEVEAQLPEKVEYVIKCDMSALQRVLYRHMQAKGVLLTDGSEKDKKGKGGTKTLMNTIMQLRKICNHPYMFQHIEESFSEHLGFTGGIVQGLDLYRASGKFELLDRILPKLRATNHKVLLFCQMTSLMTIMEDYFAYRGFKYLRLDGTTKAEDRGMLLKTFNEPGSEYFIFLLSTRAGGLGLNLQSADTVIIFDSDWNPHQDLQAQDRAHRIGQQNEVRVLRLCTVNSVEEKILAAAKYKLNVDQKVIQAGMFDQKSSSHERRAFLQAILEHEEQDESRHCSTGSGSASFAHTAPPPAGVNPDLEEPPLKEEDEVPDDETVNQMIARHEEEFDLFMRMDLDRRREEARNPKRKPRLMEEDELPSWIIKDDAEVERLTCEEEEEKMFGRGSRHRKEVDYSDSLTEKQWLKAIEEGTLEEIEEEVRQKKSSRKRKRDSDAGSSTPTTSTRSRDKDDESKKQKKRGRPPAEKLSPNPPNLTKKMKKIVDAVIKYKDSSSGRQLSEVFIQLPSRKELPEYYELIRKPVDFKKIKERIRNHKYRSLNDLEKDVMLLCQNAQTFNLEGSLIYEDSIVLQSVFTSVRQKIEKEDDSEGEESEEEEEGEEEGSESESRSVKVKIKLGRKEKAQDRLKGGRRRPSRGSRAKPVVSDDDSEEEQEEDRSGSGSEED
Test [3] concerns the target T2, SMARCA2 (Homo sapiens, UniProt P51531).
T2 construct: FLAG tag (YKDDDDK) (C); made in house; host or cells: Sf21 insect cells (baculovirus, pFastBacI)
Nature of the test: SMARCA2 FRET nucleosome remodeling activity assay. The test is classed as biochemical. The method, then: The SMARCA2 remodeling assay was initiated by the addition of 2 uL of a nucleosome remodeling assay substrate and ATP mixture (final volume=10 uL). […] The assays were terminated after 15 minutes by the addition of 2 uL EDTA (final concentration of 25 mM). The SMARCA2 remodeling activity was determined by measuring the fluorescence ratio of the Cy3 and Cy5 labels ([…]). The remodeling of the nucleosome substrate causes an increase in the spacing between the Cy3 and Cy5 labels and therefore a reduction in FRET and an increase in Cy3/Cy5 fluorescence ratio.

Test [4] has as its system H358 cells. The test can be described thus: High-throughput proliferation (HTP) assay for H358 cells (CellTiter-Glo, 7 days). To be noted: Homo sapiens, NCI-H358, 168 h, read-out: H358 SMARCA2 IC50. Format: cell-based. An outline of the steps:
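Cells were plated at 1,000 cells/well in RPMI 1640 + 10% HI-FBS + 1% pen/strep on pre-dispensed compound and incubated 7 days at 37 °C, 5% CO2. Viability was read as ATP luminescence with CellTiter-Glo after 30 min at RT. DMSO served as 0% and 10 µM doxorubicin as 100% inhibition for EC50/IC50.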
(In general: In ATP-based viability assays light output follows the ATP content of the culture.)

Test [5] deals with A549 cells. Nature of the test: High-throughput proliferation (HTP) assay for A549 cells (CellTiter-Glo, 7 days). Format: cell-based. To be noted: Homo sapiens, 168 h, read-out: A549 SMARCA2 IC50. An outline of the steps: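 Seven-day growth of A549 (62.5 cells/well, F12K with 10% HI-FBS, 37° C.) with compound, read by CellTiter-Glo ATP luminescence. Percent inhibition scaled between DMSO wells and 10 μM Doxorubicin wells, then fitted for EC50 and IC50.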

[6] abbreviates: FL-SMARCA4 IC50, Table 3.2, ATPase assay, enzyme 5 nM, ATP 250 uM, chicken mononucleosome 10 nM, 30 min preincubation.
Setting [7] is: Table 3d.1, read-out: FL-SMARCA2 IC>50.
[8] abbreviates: FL-SMARCA4 IC>50, Table 3c.2, ATPase assay, enzyme 5 nM, ATP 250 uM, chicken mononucleosome 10 nM, 30 min preincubation.

SMILES strings stand for the structures. pIC50: −log10 of the molar value. Where two headings read alike, the source gives them in different places.

T2 sequence (P51531 with tags, fused parts or gaps): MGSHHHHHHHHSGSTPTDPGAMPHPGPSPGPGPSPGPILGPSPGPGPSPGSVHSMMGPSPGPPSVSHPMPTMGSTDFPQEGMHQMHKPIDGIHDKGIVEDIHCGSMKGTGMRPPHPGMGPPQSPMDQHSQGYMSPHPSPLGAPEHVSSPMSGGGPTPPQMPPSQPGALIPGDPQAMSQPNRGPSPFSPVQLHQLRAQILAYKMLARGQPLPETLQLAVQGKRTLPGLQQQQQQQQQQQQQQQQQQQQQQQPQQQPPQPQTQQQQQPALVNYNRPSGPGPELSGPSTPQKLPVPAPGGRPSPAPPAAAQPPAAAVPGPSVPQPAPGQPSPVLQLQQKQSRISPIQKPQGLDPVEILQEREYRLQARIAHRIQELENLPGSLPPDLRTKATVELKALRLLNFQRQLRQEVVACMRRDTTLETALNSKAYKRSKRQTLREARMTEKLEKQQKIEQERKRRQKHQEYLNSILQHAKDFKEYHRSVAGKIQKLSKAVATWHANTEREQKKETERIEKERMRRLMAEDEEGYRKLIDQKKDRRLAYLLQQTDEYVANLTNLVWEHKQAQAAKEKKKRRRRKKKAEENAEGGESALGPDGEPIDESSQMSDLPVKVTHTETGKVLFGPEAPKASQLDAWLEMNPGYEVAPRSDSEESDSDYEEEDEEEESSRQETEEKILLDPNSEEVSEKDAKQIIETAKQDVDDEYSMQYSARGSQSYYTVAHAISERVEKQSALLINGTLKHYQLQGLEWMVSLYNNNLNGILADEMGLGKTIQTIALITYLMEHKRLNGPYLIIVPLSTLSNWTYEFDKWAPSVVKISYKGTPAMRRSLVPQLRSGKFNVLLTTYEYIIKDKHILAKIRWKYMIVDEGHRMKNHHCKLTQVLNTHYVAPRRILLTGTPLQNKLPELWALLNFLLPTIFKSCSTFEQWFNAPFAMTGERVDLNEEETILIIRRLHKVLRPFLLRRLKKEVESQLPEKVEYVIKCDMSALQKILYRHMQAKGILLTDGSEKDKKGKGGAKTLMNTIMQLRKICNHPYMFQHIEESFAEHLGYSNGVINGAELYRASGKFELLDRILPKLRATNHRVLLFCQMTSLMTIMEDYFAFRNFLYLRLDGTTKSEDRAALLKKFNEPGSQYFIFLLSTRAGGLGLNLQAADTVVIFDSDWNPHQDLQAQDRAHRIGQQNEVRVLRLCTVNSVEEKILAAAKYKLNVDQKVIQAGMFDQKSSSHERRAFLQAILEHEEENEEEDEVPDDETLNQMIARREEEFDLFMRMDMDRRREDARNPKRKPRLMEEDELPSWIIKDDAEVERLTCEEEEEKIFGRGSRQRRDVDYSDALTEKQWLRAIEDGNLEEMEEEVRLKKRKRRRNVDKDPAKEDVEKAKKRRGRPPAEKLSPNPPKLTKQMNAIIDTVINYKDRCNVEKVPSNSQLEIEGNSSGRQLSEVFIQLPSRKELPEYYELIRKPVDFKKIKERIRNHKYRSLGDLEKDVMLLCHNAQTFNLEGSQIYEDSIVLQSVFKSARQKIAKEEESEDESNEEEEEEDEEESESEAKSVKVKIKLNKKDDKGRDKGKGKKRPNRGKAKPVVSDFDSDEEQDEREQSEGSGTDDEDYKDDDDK
T1 sequence (P51531 with tags, fused parts or gaps): as above

Take `CCn1cc(NC(=O)c2cc(Cl)n[nH]2)cc(Cl)c1=O` [Compound 146]: the pIC50 in test [1] (Table 3.1) was 5.99; in test [2] (setting [6]), 5.45; in test [3] it was 5.59.

Take `O=C(Nc1ccc(=O)n(CC(F)(F)F)c1)c1cc(Cl)n[nH]1` [Compound 145]: the pIC50 is 5.52 in test [1] (Table 3.1), 4.92 in test [2] (setting [6]) and 5.30 in test [3].

For the compound `O=C(Nc1cc(F)c(=O)n(CCF)c1)c1cnc(C(F)F)s1` [Compound 295], the pIC50 is 6.76 in test [1] (Table 3.1), 6.13 in test [2] (setting [6]) and 6.30 in test [3].

Turning to `N#Cc1sc(C(=O)Nc2cc(Cl)c(=O)n(CC(F)(F)F)c2)cc1Cl` [Compound 131], the pIC50 in test [1] (Table 3.1) is 6.95; in test [2] (setting [6]), 6.52; in test [3], 6.77.

Consider `O=C(Nc1cc(F)c(=O)n(CCF)c1)c1cc(Cl)c(C(F)F)s1` [Compound 290], for which the pIC50 is 6.87 in test [1] (Table 3.1), 6.17 in test [2] (setting [6]) and 6.39 in test [3].

Take `CCn1cc(NC(=O)c2cc(Cl)c(Cl)n2C)ccc1=O` [Compound 1]: the pIC50 is 5.56 in test [1] (Table 3.1), 4.40 in test [2] (setting [6]) and 5.15 in test [3].

On to `O=C(Nc1cc(F)c(=O)n(CC(F)(F)F)c1)c1cnc(Cl)s1` [Compound 143], for which the pIC50 in test [1] (Table 3.1) was 6.92; in test [2] (setting [6]), 6.48; in test [3] it was 6.77.

For `CCn1cc(NC(=O)c2cnc(C#N)s2)cc(F)c1=O` [Compound 150], the results for the pIC50 in test [1] (Table 3.1), in test [2] (setting [6]) and in test [3] were 7.57, 7.02 and 7.66, respectively.

Take `CCn1cc(NC(=O)c2cc(Cl)c(C#N)s2)cc(F)c1=O` [Compound 128]: the pIC50 is 7.10 in test [1] (Table 3.1), 6.79 in test [2] (setting [6]) and 6.65 in test [3].

For the compound `N#Cc1ncc(C(=O)Nc2cc(Cl)c(=O)n(CC(F)(F)F)c2)s1` [Compound 137], the pIC50 in test [1] (Table 3.1) is 7.59; in test [2] (setting [6]), 6.95; in test [3] it was 7.54.

Regarding `O=C(Nc1cc(F)c(=O)n(CC(F)(F)F)c1)c1cc(Cl)c(Cl)s1` [Compound 141], the pIC50 is 7.03 in test [1] (Table 3.1), 6.45 in test [2] (setting [6]) and 6.40 in test [3].

`Cn1c(C(=O)Nc2cc(F)c(=O)n(CC(F)(F)F)c2)cc(Cl)c1Cl` [Compound 144]: the pIC50 in test [1] (Table 3.1) was 6.61; in test [2] (setting [6]) it was 5.93; in test [3], 5.90.

Regarding `O=C(Nc1cc(F)c(=O)n(CC(F)F)c1)c1cc(C#CC(F)(F)F)c(Cl)s1` [Compound 74d], the pIC50 in test [1] (setting [7]) is 6.33; in test [4], 5.61; in test [2] (FL-SMARCA4 IC50) it was 5.99; in test [5], 5.78.

For the compound `O=C(Nc1cc(F)c(=O)n(CC(F)F)c1)c1cc(C#CCn2cccn2)c(Cl)s1` [Compound 123d], the pIC50 is 6.28 in test [1] (setting [7]), < 5.00 in test [4], 5.80 in test [2] (FL-SMARCA4 IC50) and < 5.00 in test [5].

As for `O=C(Nc1cc(F)c(=O)n(CC(F)F)c1)c1cc(C#C[C@H]2C[C@H](O)C2)c(Cl)s1` [Compound 73d], the pIC50 was 7.96 in test [1] (setting [7]), < 5.00 in test [4], 7.49 in test [2] (FL-SMARCA4 IC50) and 5.74 in test [5].

`CCn1cc(C#Cc2cc(C(=O)Nc3cc(F)c(=O)n(CC(F)F)c3)sc2Cl)cn1` [Compound 54c]: the pIC50 in test [1] (Table 3c.1) is 7.34; in test [4], < 5.00; in test [2] (setting [8]), 6.78; in test [5], 5.72.

Turning to `NC(=O)c1ccc(C#Cc2cc(C(=O)Nc3cc(F)c(=O)n(CC(F)F)c3)sc2Cl)cc1` [Compound 68c], the pIC50 in test [1] (Table 3c.1) was 7.17; in test [4], < 5.00; in test [2] (setting [8]), 6.92; in test [5], 5.23.

As to `O=C(Nc1cc(F)c(=O)n(CC(F)F)c1)c1cc(C#Cc2c[nH]cn2)c(Cl)s1` [Compound 113c], the pIC50 is 7.46 in test [1] (Table 3c.1), < 5.00 in test [4], 6.96 in test [2] (setting [8]) and 5.39 in test [5].

`N#Cc1nc(C#Cc2cc(C(=O)Nc3cc(F)c(=O)n(CC(F)F)c3)sc2Cl)cs1` [Compound 117c]: the pIC50 in test [1] (Table 3c.1) was 8.28; in test [4] it was 5.83; in test [2] (setting [8]), 8.16; in test [5], 5.74.

`CN1CCCC(C#Cc2cc(C(=O)Nc3cc(F)c(=O)n(CC(F)F)c3)sc2Cl)C1` (centres unmarked) [Compound 140d]: the pIC50 in test [1] (setting [7]) is 6.11; in test [4], < 5.00; in test [2] (FL-SMARCA4 IC50), 5.75; in test [5], 5.14.

For the compound `N#Cc1ncc(C(=O)Nc2cc(F)c(=O)n(CC(F)(F)F)c2)s1` [Compound 151, 2-Cyano-N-(5-fluoro-6-oxo-1-(2,2,2-trifluoroethyl)-1,6-dihydropyridin-3-yl)thiazole-5-carboxamide], the pIC50 in test [1] (Table 3.1) was 7.69; in test [2] (setting [6]) it was 7.17; in test [3] it was 7.54.

As to `NCCOCC#Cc1cc(C(=O)Nc2cc(F)c(=O)n(CC(F)F)c2)sc1Cl` [Compound 111d], the pIC50 in test [1] (setting [7]) is 5.77; in test [4], < 5.00; in test [2] (FL-SMARCA4 IC50), 5.29; in test [5] it was < 5.00.

Regarding `N#Cc1ncc(C#Cc2cc(C(=O)Nc3cc(F)c(=O)n(CC(F)F)c3)sc2Cl)o1` [Compound 100d], the pIC50 was 8.22 in test [1] (setting [7]), 5.20 in test [4], 8.07 in test [2] (FL-SMARCA4 IC50) and 5.36 in test [5].

`O=C(Nc1cc(F)c(=O)n(CC(F)F)c1)c1sc(C(F)(F)F)cc1Cl` [Compound 48c]: the pIC50 in test [1] (Table 3c.1) was 4.60; in test [4] it was < 5.00; in test [2] (setting [8]), < 4.30; in test [5] it was < 5.00.

For `O=C(Nc1cc(F)c(=O)n(CC(F)F)c1)c1cc(OC(F)(F)F)c(C(F)(F)F)s1` [Compound 89d], the pIC50 in test [1] (setting [7]) was 6.73; in test [4], < 5.00; in test [2] (FL-SMARCA4 IC50), 5.68; in test [5], 5.25.

In the case of `Cn1ccc(C#Cc2cc(C(=O)Nc3cc(F)c(=O)n(CC(F)F)c3)sc2Cl)cc1=O` [Compound 65d], the pIC50 is 5.63 in test [1] (setting [7]), < 5.00 in test [4], 5.11 in test [2] (FL-SMARCA4 IC50) and < 5.00 in test [5].

Regarding `O=C(Nc1cc(F)c(=O)n(CC(F)F)c1)c1cc(C#CCn2cncn2)c(Cl)s1` [Compound 127d], the pIC50 is 6.23 in test [1] (setting [7]), < 5.00 in test [4], 5.84 in test [2] (FL-SMARCA4 IC50) and < 5.00 in test [5].

As for `CCn1cc(NC(=O)c2cnc(C#N)s2)cc(Cl)c1=O` [Compound 136], the figures for the pIC50 in test [1] (Table 3.1), in test [2] (setting [6]) and in test [3] were 7.24, 6.73 and 7.54, respectively.

Turning to `CN(C)Cc1cccc(C#Cc2cc(C(=O)Nc3cc(F)c(=O)n(CC(F)F)c3)sc2Cl)c1` [Compound 128c], the pIC50 in test [1] (Table 3c.1) was 6.68; in test [4], 5.41; in test [2] (setting [8]), 6.08; in test [5] it was 5.29.

On to `NC(=O)Cn1cc(C#Cc2cc(C(=O)Nc3cc(F)c(=O)n(CC(F)F)c3)sc2Cl)cn1` [Compound 120c], for which the pIC50 in test [1] (Table 3c.1) was 7.04; in test [4], < 5.00; in test [2] (setting [8]), 6.62; in test [5] it was < 5.00.

Take `N#Cc1cc(C(=O)Nc2cc(OC(F)(F)F)c(=O)n(CC(F)F)c2)sc1C(F)(F)F` [Compound 103d]: the pIC50 in test [1] (setting [7]) is < 4.30; in test [4] it was < 5.00; in test [2] (FL-SMARCA4 IC50), < 4.30; in test [5], < 5.00.

Regarding `N#Cc1ccc(C#Cc2cc(C(=O)Nc3cc(F)c(=O)n(CC(F)F)c3)sc2Cl)cc1` [Compound 43c], the pIC50 in test [1] (Table 3c.1) is 6.88; in test [4] it was < 5.00; in test [2] (setting [8]), 6.48; in test [5], 5.53.

As for `N#Cc1cncc(C#Cc2cc(C(=O)Nc3cc(F)c(=O)n(CC(F)F)c3)sc2Cl)c1` [Compound 64d], the pIC50 is 6.78 in test [1] (setting [7]), < 5.00 in test [4], 6.30 in test [2] (FL-SMARCA4 IC50) and 5.42 in test [5].

Consider `O=C(Nc1cc(F)c(=O)n(CC(F)F)c1)c1cc(C#CC2CCCOC2)c(Cl)s1` (centres unmarked) [Compound 68d], for which the pIC50 is 7.14 in test [1] (setting [7]), < 5.00 in test [4], 6.69 in test [2] (FL-SMARCA4 IC50) and 5.62 in test [5].
